Measurements as given in ChEMBL document CHEMBL4000195, “Design and synthesis of novel 7-aminosubstituted pyrido[2,3-b]pyrazines exhibiting anti-breast cancer activity” (Eur J Med Chem, 2017).
The source made the active and inactive calls. The calls are words filed in the database; no cut-off is given here.

Columns and labels:
Mus musculus [1] = assay: In vivo inhibition of ERK1/2 phosphorylation at Thr202/Tyr204 residue in NOD/SCID mouse tumor xenografted with HER2-amplified human HCC1954 cells at 10 mg/kg, ip administered once daily for 18 days measured after 1 hr last dose by […]; format: functional, organism-based
[2] = target: Macrophage colony-stimulating factor 1 receptor (Homo sapiens) (UniProt P07333); assay: Inhibition of human wild type partial length CSF1R (I564 to S939 residues) expressed in bacterial expression system at 10 uM by KinomeScan method relative to control
[3] = AUC (0 to 24 hrs) in NOD/SCID mouse at 10 mg/kg, ip administered twice by LC-MS/MS method; format: ADME, organism-based; parameters: time < 24 hr, dose 10 mg/kg, route intraperitoneal; details: in vivo
Mus musculus [4] = assay: In vivo inhibition of ERK1/2 phosphorylation at Thr202/Tyr204 residue in NOD/SCID mouse tumor xenografted with HER2-amplified human HCC1954 cells at 10 mg/kg, ip administered once daily for 18 days measured after 1 hr last dose; format: functional, organism-based
[5] = target: Focal adhesion kinase 1 (Homo sapiens) (UniProt Q05397); assay: Inhibition of human wild type partial length FAK (D402 to R696 residues) expressed in bacterial expression system at 10 uM by KinomeScan method relative to control
[6] = target: Mitogen-activated protein kinase kinase kinase 1 (Homo sapiens) (UniProt Q13233); assay: Inhibition of human wild type partial length MAP3K1 (L1202 to W1512 residues) expressed in mammalian expression system at 10 uM by KinomeScan method relative to control
[7] = Tmax in NOD/SCID mouse at 0.5 mg/kg, po administered as single dose by LC-MS/MS method; format: ADME, organism-based; details: in vivo
MCF7 = assay: Cytotoxicity against human MCF7 cells by MTT assay; format: functional, cell-based
[8] = AUC (0 to 8 hrs) in NOD/SCID mouse at 40 mg/kg, ip administered as single dose by LC-MS/MS method; format: ADME, organism-based; parameters: time < 8 hr, dose 40 mg/kg, route intraperitoneal; details: in vivo
HCC1954 = assay: Anti-tumor activity against HER2-amplified human HCC1954 cells xenografted in NOD/SCID mouse assessed as proliferation index at 10 mg/kg, ip administered once daily for 18 days measured after 1 hr last dose by Ki-67/hematoxylin and eosin staining based microscopic analysis (reference value: 78.4 +/- 14.8%); format: functional
Mus musculus [9] = assay: Toxicity in NOD/SCID mouse assessed as phenotypic changes at 10 mg/kg, ip administered once daily for 18 days measured after 1 hr last dose; format: organism-based; details: in vivo
Mus musculus [10] = assay: In vivo inhibition of Akt phosphorylation at Ser473 residue in NOD/SCID mouse tumor xenografted with HER2-amplified human HCC1954 cells at 10 mg/kg, ip administered once daily for 18 days measured after 1 hr last dose; format: functional, organism-based
[11] = AUC (0 to 8 hrs) in NOD/SCID mouse at 0.5 mg/kg, po administered as single dose by LC-MS/MS method; format: ADME, organism-based; parameters: time < 8 hr, dose 0.5 mg/kg, route oral; details: in vivo
MDA-MB-231 = assay: Cytotoxicity against human MDA-MB-231 cells at 5 uM by MTT assay; format: functional
[12] = Cmax in NOD/SCID mouse at 40 mg/kg, ip administered as single dose by LC-MS/MS method; format: ADME, organism-based; parameters: dose 40 mg/kg, route intraperitoneal; details: in vivo
[13] = target: Phosphatidylinositol 4,5-bisphosphate 3-kinase catalytic subunit alpha isoform (Homo sapiens, UniProt P42336, H1047R); assay: Inhibition of PI3Kalpha H1047R mutant (unknown origin) using PIP2 liposomes as substrate in presence of biotin-labeled PIP3 and GST-GRP1-PH by streptavidin-HRP based assays
[14] = target: Cyclin-dependent kinase 5/CDK5 activator 1 (Homo sapiens) (UniProt Q00535+Q15078); assay: Inhibition of human CDK5/p25 using histone H1 as substrate in presence of [gamma33P]ATP after 30 mins by scintillation counting method; format: protein-complex assay
[15] = target: Phosphatidylinositol 4,5-bisphosphate 3-kinase catalytic subunit alpha isoform (Homo sapiens, UniProt P42336); assay: Inhibition of PI3Kalpha catalytic domain (unknown origin) using PIP2 liposomes as substrate in presence of biotin-labeled PIP3 and GST-GRP1-PH by streptavidin-HRP based assays
[16] = target: Platelet-derived growth factor receptor beta (Homo sapiens) (UniProt P09619); assay: Inhibition of recombinant human GST-tagged PDGFR-beta (557-end residues) transphosphorylation activity expressed in baculovirus infected Sf9 cells using poly[Glu:Tyr] (4:1) as substrate after 60 mins
[17] = target: Tyrosine-protein kinase TXK (Homo sapiens) (UniProt P42681); assay: Inhibition of human wild type partial length TXK (L238 to W527 residues) expressed in bacterial expression system at 10 uM by KinomeScan method relative to control
[18] = Cmax in NOD/SCID mouse at 10 mg/kg, ip administered twice by LC-MS/MS method; format: ADME, organism-based; parameters: dose 10 mg/kg, route intraperitoneal; details: in vivo
[19] = target: Insulin-like growth factor 1 receptor (Homo sapiens) (UniProt P08069); assay: Inhibition of human wild type partial length IGF1R (L972 to D1294 residues) expressed in bacterial expression system at 10 uM by KinomeScan method relative to control
Mus musculus [20] = assay: In vivo inhibition of Akt phosphorylation at ser-473 residue in NOD/SCID mouse tumor xenografted with HER2-amplified human HCC1954 cells at 10 mg/kg, ip administered once daily for 18 days measured after 1 hr last dose by […]; format: functional, organism-based
[21] = target: T1, Serine/threonine-protein kinase haspin (Homo sapiens) (UniProt Q8TF76); assay: Inhibition of human HASPIN
T1 sequence (whole entry): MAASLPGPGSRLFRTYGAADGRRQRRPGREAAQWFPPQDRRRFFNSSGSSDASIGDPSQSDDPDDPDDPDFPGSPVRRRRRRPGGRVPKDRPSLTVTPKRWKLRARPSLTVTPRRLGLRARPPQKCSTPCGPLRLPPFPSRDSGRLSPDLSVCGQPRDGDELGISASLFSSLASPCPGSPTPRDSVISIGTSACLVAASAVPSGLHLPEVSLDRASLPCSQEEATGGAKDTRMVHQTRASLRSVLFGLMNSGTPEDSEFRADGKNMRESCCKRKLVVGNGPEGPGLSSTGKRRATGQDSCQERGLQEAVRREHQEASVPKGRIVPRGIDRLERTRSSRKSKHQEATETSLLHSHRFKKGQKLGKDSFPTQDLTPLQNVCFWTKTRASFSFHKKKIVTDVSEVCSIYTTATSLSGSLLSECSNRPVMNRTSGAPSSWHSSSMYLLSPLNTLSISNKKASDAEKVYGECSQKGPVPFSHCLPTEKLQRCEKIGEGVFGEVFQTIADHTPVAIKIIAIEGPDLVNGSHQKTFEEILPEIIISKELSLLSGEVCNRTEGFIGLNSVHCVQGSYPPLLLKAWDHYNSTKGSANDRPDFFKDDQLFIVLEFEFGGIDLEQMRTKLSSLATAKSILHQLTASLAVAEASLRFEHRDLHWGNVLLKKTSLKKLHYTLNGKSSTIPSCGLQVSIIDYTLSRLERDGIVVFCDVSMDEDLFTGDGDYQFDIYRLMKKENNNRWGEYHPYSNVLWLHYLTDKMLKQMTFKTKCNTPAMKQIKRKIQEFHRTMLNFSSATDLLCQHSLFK

Chain of Phosphatidylinositol 4,5-bisphosphate 3-kinase catalytic subunit alpha isoform (Homo sapiens, UniProt P42336) (P42336 whole entry, the tested form may be a part, canonical isoform): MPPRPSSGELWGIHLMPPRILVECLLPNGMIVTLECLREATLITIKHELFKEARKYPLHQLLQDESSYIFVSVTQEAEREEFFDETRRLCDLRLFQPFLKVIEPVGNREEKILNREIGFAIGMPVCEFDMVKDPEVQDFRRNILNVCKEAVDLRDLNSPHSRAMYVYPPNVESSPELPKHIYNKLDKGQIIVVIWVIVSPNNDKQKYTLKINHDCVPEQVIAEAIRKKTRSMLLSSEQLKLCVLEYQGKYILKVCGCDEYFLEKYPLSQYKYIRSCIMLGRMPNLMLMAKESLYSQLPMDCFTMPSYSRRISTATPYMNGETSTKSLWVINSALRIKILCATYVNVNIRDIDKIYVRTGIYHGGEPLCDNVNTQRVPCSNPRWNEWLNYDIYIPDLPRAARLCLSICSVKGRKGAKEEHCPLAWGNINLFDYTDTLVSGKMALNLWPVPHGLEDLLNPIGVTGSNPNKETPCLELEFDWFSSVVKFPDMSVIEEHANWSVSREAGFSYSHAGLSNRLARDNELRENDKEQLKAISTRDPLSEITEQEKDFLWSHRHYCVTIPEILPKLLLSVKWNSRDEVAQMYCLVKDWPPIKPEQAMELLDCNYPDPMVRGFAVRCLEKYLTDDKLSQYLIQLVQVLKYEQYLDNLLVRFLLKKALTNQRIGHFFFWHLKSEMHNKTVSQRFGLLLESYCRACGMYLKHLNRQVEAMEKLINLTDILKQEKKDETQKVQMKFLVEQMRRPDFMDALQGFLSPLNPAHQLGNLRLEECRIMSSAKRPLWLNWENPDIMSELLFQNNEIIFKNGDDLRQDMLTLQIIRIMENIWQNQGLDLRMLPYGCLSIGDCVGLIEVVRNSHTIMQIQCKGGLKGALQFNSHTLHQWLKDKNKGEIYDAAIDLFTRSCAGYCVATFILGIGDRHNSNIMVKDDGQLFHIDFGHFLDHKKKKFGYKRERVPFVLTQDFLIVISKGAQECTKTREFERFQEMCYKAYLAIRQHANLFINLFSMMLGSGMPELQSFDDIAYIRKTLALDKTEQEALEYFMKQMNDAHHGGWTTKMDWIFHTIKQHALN
Chain of Macrophage colony-stimulating factor 1 receptor (Homo sapiens) (P07333 whole entry, the tested form may be a part): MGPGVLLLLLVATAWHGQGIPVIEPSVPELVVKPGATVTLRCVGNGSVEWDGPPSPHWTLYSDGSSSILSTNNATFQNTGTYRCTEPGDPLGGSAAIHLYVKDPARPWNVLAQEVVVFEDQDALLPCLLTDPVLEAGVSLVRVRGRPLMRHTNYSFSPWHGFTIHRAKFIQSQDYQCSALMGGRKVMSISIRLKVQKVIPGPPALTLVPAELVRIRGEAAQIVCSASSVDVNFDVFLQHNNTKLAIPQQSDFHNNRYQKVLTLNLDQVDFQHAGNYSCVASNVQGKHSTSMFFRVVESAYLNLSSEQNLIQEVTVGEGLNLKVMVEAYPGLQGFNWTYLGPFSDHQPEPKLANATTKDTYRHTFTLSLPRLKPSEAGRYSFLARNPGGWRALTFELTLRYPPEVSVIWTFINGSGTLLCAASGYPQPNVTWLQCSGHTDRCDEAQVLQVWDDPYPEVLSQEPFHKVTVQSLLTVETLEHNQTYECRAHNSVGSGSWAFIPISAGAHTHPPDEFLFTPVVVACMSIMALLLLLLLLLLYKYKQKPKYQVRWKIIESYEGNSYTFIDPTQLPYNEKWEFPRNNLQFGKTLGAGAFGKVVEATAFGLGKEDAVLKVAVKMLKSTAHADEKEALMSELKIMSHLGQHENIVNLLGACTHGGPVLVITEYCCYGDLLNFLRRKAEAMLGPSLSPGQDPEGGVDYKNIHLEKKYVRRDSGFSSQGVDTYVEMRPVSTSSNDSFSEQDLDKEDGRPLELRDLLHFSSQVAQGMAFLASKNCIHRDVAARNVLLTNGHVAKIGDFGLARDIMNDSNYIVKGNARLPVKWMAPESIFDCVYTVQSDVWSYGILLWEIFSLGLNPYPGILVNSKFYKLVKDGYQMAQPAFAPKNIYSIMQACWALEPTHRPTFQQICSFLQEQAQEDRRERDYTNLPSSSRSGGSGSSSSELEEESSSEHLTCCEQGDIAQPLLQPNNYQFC
Chain of Focal adhesion kinase 1 (Homo sapiens) (Q05397 2-1052 limits assumed): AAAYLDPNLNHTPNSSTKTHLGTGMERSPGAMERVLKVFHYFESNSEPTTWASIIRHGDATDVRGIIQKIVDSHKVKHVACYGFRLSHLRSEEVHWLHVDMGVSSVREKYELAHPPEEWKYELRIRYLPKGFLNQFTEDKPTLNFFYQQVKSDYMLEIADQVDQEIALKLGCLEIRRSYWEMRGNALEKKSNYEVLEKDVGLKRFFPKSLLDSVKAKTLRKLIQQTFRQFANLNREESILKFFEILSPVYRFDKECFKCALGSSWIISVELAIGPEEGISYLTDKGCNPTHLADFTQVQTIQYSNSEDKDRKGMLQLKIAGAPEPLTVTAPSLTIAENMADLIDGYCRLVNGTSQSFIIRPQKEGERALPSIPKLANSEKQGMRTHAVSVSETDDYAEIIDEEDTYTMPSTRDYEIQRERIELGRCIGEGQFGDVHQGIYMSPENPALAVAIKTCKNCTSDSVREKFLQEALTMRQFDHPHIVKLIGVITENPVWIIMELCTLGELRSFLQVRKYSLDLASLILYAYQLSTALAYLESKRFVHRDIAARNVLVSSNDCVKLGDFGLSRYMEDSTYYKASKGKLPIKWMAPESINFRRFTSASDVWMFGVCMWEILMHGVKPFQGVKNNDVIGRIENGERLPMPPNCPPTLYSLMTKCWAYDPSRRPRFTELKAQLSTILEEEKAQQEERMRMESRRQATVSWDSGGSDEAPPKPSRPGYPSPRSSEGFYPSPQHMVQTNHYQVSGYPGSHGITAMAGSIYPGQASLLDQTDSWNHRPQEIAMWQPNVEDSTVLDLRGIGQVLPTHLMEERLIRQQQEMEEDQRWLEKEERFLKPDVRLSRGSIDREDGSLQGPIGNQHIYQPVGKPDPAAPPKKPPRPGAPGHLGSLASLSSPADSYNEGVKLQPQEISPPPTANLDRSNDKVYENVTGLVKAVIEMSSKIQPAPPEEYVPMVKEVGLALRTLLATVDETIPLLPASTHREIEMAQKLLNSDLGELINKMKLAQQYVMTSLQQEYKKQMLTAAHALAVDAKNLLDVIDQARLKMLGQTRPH
Chain of Phosphatidylinositol 4,5-bisphosphate 3-kinase catalytic subunit alpha isoform (Homo sapiens, UniProt P42336, H1047R) (P42336 whole entry H1047R, canonical isoform): as the sequence (P42336 whole entry, the tested form may be a part, canonical isoform) above, with H1047R counted along it
Chain of Cyclin-dependent kinase 5/CDK5 activator 1 (Homo sapiens) (Q00535 whole entry, the tested form may be a part, canonical isoform): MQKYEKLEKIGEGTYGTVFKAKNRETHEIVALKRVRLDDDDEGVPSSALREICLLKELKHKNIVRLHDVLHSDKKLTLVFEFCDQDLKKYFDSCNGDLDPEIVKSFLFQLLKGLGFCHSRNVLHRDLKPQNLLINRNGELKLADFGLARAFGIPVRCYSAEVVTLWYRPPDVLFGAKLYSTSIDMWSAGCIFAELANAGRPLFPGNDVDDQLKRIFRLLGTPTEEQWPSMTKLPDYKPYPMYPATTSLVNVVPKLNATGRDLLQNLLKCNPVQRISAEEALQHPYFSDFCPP
Chain of Cyclin-dependent kinase 5/CDK5 activator 1 (Homo sapiens) (Q15078 99-307 partner limits assumed): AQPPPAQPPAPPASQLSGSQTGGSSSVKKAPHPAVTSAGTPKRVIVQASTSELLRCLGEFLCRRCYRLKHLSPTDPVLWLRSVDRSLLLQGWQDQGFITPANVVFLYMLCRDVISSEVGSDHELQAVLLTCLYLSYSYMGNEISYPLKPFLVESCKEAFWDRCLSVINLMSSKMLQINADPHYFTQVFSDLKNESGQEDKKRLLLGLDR

Cc1nc2nc(Sc3ccccc3)cnc2cc1NC(=O)Nc1ccccc1
inhibition (Mus musculus [1]): Active
inhibition [2]: 0%
AUC(0-t) at 24 h [3]: 70.8 µM·h
inhibition (Mus musculus [4]): Active
inhibition [5]: 0%
inhibition [6]: 0%
Tmax [7]: 1 h
IC50 (MCF7): 3.1 µM
AUC(0-t) at 8 h [8]: 131 µM·h
Activity_index (HCC1954): 25.7%
Activity (Mus musculus [9]): Non-Toxic
inhibition (Mus musculus [10]): Active
AUC(0-t) at 8 h [11]: 1.53 µM·h
Activity (MDA-MB-231): >50%
Cmax [12]: 18.7 µM
IC50 [13]: 22 µM
inhibition [14]: inactive
IC50 [15]: 26 µM
inhibition [16]: inactive
inhibition [17]: 8%
Cmax [18]: 6.45 µM
inhibition [19]: 6%
inhibition (Mus musculus [20]): Active
inhibition [21]: inactive
